Results: patent US9701662B2, “Herbicidal compounds” (Syngenta Participations AG, priority 2014, dated 2017)

Key:
Format in all cases: in vivo
[1] = test system: Lolium perenne (LOLPE); assay: Pre-emergence glasshouse herbicide test; details: pre-emergence (sprayed after one day cultivation), 1000 g/h, evaluated after 13 days, five point scale
Description: (§1) Seeds of a variety of test species are sown in standard soil in pots (Lolium perenne (LOLPE), Solanum nigrum (SOLNI), Amaranthus retoflexus (AMARE), Setaria faberi (SETFA), Echinochloa crus-galli (ECHCG), Ipomoea hederacea (IPOHE)). After cultivation for one day (pre-emergence) or after 8 days cultivation (post-emergence) under controlled conditions in a glasshouse (at 24/16° C., day/night; 14 hours light; 65% humidity), the plants are sprayed with an aqueous spray solution derived from the formulation of the technical active ingredient in acetone/water (50:50) solution containing 0.5% Tween 20 (polyoxyethelyene sorbitan monolaurate, CAS RN 9005-64-5). Compounds are applied at 1000 g/h. The test plants are then grown in a glasshouse under controlled conditions in a glasshouse (at 24/16° C., day/night; 14 hours light; 65% humidity) and watered twice daily. After 13 days for pre and post-emergence, the test is evaluated for the percentage damage caused to the plant. The biological activities are shown in the following table on a five point scale (5=80-100%; 4=60-79%; 3=40-59%; 2=20-39%; 1=0-19%).

[2] = test system: Echinochloa crus-galli (ECHCG); assay: Pre-emergence glasshouse herbicide test; details: pre-emergence (sprayed after one day cultivation), 1000 g/h, evaluated after 13 days, five point scale
Description: as §1

[3] = test system: Solanum nigrum (SOLNI); assay: Pre-emergence glasshouse herbicide test; details: pre-emergence (sprayed after one day cultivation), 1000 g/h, evaluated after 13 days, five point scale
Description: as §1

[4] = test system: Setaria faberi (SETFA); assay: Pre-emergence glasshouse herbicide test; details: pre-emergence (sprayed after one day cultivation), 1000 g/h, evaluated after 13 days, five point scale
Description: as §1

[5] = test system: Ipomoea hederacea (IPOHE); assay: Pre-emergence glasshouse herbicide test; details: pre-emergence (sprayed after one day cultivation), 1000 g/h, evaluated after 13 days, five point scale
Description: as §1

[6] = test system: Amaranthus retoflexus (AMARE); assay: Pre-emergence glasshouse herbicide test; details: pre-emergence (sprayed after one day cultivation), 1000 g/h, evaluated after 13 days, five point scale
Description: as §1

[7] = test system: Lolium perenne (LOLPE); assay: Post-emergence glasshouse herbicide test; details: post-emergence (sprayed after 8 days cultivation), 1000 g/h, evaluated after 13 days, five point scale
Description: as §1

[8] = test system: Echinochloa crus-galli (ECHCG); assay: Post-emergence glasshouse herbicide test; details: post-emergence (sprayed after 8 days cultivation), 1000 g/h, evaluated after 13 days, five point scale
Description: as §1

[9] = test system: Solanum nigrum (SOLNI); assay: Post-emergence glasshouse herbicide test; details: post-emergence (sprayed after 8 days cultivation), 1000 g/h, evaluated after 13 days, five point scale
Description: as §1

[10] = test system: Setaria faberi (SETFA); assay: Post-emergence glasshouse herbicide test; details: post-emergence (sprayed after 8 days cultivation), 1000 g/h, evaluated after 13 days, five point scale
Description: as §1

[11] = test system: Ipomoea hederacea (IPOHE); assay: Post-emergence glasshouse herbicide test; details: post-emergence (sprayed after 8 days cultivation), 1000 g/h, evaluated after 13 days, five point scale
Description: as §1

[12] = test system: Amaranthus retoflexus (AMARE); assay: Post-emergence glasshouse herbicide test; details: post-emergence (sprayed after 8 days cultivation), 1000 g/h, evaluated after 13 days, five point scale
Description: as §1

Compound	percentage damage caused to the plant, LOLPE, PRE Application [1]	percentage damage caused to the plant, ECHCG, PRE Application [2]	percentage damage caused to the plant, SOLNI, PRE Application [3]	percentage damage caused to the plant, SETFA, PRE Application [4]	percentage damage caused to the plant, IPOHE, PRE Application [5]	percentage damage caused to the plant, AMARE, PRE Application [6]	percentage damage caused to the plant, LOLPE, POST Application [7]	percentage damage caused to the plant, ECHCG, POST Application [8]	percentage damage caused to the plant, SOLNI, POST Application [9]	percentage damage caused to the plant, SETFA, POST Application [10]	percentage damage caused to the plant, IPOHE, POST Application [11]	percentage damage caused to the plant, AMARE, POST Application [12]
Cc1c(Cl)c(C(=O)Nc2nnnn2C)nn(C)c1=O [Compound 1.007]	5 (5=80-100%)	5 (5=80-100%)	5 (5=80-100%)	5 (5=80-100%)	5 (5=80-100%)	5 (5=80-100%)	5 (5=80-100%)	5 (5=80-100%)	5 (5=80-100%)	5 (5=80-100%)	5 (5=80-100%)	5 (5=80-100%)
CCCCNc1c(C(=O)Nc2nnnn2C)nn(C)c(=O)c1C [Compound 1.008]	1 (1=0-19%)	1 (1=0-19%)	2 (2=20-39%)	1 (1=0-19%)	2 (2=20-39%)	4 (4=60-79%)	1 (1=0-19%)	1 (1=0-19%)	5 (5=80-100%)	1 (1=0-19%)	2 (2=20-39%)	5 (5=80-100%)
CCOc1c(C(=O)Nc2nnnn2C)nn(C)c(=O)c1C [Compound 1.009]	3 (3=40-59%)	4 (4=60-79%)	5 (5=80-100%)	3 (3=40-59%)	5 (5=80-100%)	5 (5=80-100%)	4 (4=60-79%)	5 (5=80-100%)	5 (5=80-100%)	5 (5=80-100%)	5 (5=80-100%)	5 (5=80-100%)
Cn1nnnc1NC(=O)c1nn(C)c(=O)c(-c2ccccc2)c1Cl [Compound 1.010]	5 (5=80-100%)	5 (5=80-100%)	5 (5=80-100%)	5 (5=80-100%)	1 (1=0-19%)	5 (5=80-100%)	4 (4=60-79%)	5 (5=80-100%)	5 (5=80-100%)	5 (5=80-100%)	4 (4=60-79%)	5 (5=80-100%)
Cn1nnnc1NC(=O)c1nn(C)c(=O)c(-c2ccc(Cl)cc2Cl)c1Cl [Compound 1.011]	5 (5=80-100%)	5 (5=80-100%)	5 (5=80-100%)	5 (5=80-100%)	3 (3=40-59%)	5 (5=80-100%)	5 (5=80-100%)	5 (5=80-100%)	5 (5=80-100%)	5 (5=80-100%)	4 (4=60-79%)	3 (3=40-59%)
